Read-outs that look alike come from different tables or passages of the source.
Experiments:
[1] = system: P. aeruginosa expressing the Class B carbapenemase VIM-2; assay: Broth microdilution MIC assay with meropenem, P. aeruginosa VIM-2; assay type: cell-based; conditions: Fixed Mero (meropenem) 4 μg/mL; P. aerug. 2775 VIM-2
Procedure, shortened: (§1)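 CAMHB; cpd 2-fold serial dilution, 16–0.125 μg/mL final; β-lactam static 4 μg/ml; CLSI inoculation; 16–20 h, 37° C; MIC read by eye.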

[2] = system: K. pneumoniae expressing the class A carbapenemase KPC-2 and the class B carbapenemase VIM-4; assay: Broth microdilution MIC assay with meropenem, K. pneumoniae KPC-2 and VIM-4; assay type: cell-based; conditions: Fixed Mero (meropenem) 4 μg/mL; K. p. A-1797 KPC-2 VIM-4
Procedure, shortened: as §1

[3] = system: E. cloacae expressing the Class C P99; assay: Broth microdilution MIC assay with ceftazidime, E. cloacae P99; assay type: cell-based; conditions: Fixed CAZ (ceftazidime) 4 μg/mL; E. cl. 144200 p99 AmpC
Procedure, shortened: as §1

OXA-48 = OXA-48 (UniProt Q6XEC0); assay: β-lactamase enzyme inhibition assay, Class D oxacillinase; assay type: biochemical; conditions: read-out: OXA-48
[4] = system: E. coli expressing the Class A Extended Spectrum Beta-Lactamase (ESBL) CTX-M-15; assay: Broth microdilution MIC assay with ceftazidime, E. coli CTX-M-15; assay type: cell-based; conditions: Fixed CAZ (ceftazidime) 4 μg/mL; E. coli ESBL4 CTX-M-15
Procedure, shortened: as §1

KPC-2 = biological target: T1, KPC-2 (Klebsiella pneumoniae, UniProt Q9F663); assay: β-lactamase enzyme inhibition assay, KPC-2 (imipenem substrate); assay type: biochemical
T1 construct: made in house; host or cells: E. coli BL21(DE3)
T1 sequence (Q9F663 25-293, looked up): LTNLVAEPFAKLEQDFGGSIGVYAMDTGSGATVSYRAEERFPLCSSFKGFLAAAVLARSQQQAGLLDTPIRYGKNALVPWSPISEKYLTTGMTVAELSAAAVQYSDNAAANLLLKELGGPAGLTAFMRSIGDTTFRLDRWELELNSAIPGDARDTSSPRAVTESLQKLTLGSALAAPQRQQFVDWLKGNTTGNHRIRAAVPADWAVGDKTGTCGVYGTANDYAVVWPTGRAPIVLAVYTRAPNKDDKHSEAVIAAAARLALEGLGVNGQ
Procedure, shortened: (§2)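 Untagged enzyme from E. coli BL21(DE3), purified by Capto S then Superdex 75; 15 min 37 °C preincubation with inhibitor; KPC-2 read with imipenem at 300 nm, SHV-5 with cefotaxime at 260 nm, OXA-1 with nitrocefin 100 μM final at 486 nm; 10 min kinetic read; IC50 vs uninhibited wells.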

AmpC = biological target: T2, AmpC (Enterobacter cloacae, UniProt P05364); assay: β-lactamase enzyme inhibition assay, p99 AmpC (nitrocefin substrate); assay type: biochemical
T2 construct: made in house; host or cells: E. coli BL21(DE3)
T2 sequence (P05364 21-381): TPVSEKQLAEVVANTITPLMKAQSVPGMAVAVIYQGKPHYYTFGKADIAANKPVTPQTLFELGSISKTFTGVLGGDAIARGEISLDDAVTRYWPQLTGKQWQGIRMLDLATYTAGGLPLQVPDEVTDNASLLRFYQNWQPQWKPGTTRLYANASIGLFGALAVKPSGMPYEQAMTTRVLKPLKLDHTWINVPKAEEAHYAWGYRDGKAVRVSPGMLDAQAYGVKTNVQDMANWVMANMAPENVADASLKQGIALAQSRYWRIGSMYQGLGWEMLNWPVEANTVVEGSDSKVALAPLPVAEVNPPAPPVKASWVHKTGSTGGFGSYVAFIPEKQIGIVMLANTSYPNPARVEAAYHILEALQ
Procedure, shortened: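 Untagged enzyme from E. coli BL21(DE3), purified by Capto S then Superdex 75; 15 min 37 °C preincubation with inhibitor; 10 min kinetic read; IC50 vs uninhibited wells.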

VIM-2 = biological target: T3, VIM-2 (Escherichia coli, UniProt Q5U7L7); assay: β-lactamase enzyme inhibition assay, VIM-2 (nitrocefin substrate); assay type: biochemical
T3 construct: made in house; host or cells: E. coli BL21(DE3)
Procedure, shortened: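 Enzyme + inhibitor, 37 °C, 15 min; nitrocefin 100 μM final; A486 read for 10 min. % inhibition vs no-inhibitor wells per concentration; IC50 = concentration halving initial hydrolysis rate.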

[5] = system: K. pneumoniae producing the Class D carbapenemase OXA-48; assay: Broth microdilution MIC assay with meropenem, K. pneumoniae OXA-48; assay type: cell-based; conditions: Fixed Mero (meropenem) 4 μg/mL; K. p. 11978 OXA-48
Procedure, shortened: as §1

SHV-5 = biological target: T4, SHV-5 (Klebsiella pneumoniae, UniProt P0A3M1); assay: β-lactamase enzyme inhibition assay, SHV-5 (cefotaxime substrate); assay type: biochemical
T4 construct: made in house; host or cells: E. coli BL21(DE3)
T4 sequence (P0A3M1 22-286): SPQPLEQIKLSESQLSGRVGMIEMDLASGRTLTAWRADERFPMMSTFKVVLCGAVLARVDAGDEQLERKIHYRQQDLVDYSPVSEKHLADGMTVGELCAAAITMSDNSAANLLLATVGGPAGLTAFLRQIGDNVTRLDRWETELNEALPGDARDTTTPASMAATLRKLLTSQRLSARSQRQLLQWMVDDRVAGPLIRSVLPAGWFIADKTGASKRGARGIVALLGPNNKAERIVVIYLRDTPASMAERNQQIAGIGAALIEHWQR
Procedure, shortened: as §2

[6] = system: K. pneumoniae expressing the Class A carbapenemase KPC-2; assay: Broth microdilution MIC assay with meropenem, K. pneumoniae KPC-2; assay type: cell-based; conditions: Fixed Mero (meropenem) 4 μg/mL; K. p. 156319 KPC-3
Procedure, shortened: as §1

[7] = Class A, imipenem substrate, 300 nm, read-out: KPC-2
[8] = Class B, nitrocefin substrate, 486 nm, read-out: VIM-2

Row | SMILES | MIC (μg/mL) of Exemplary Compounds in presence of fixed β-lactams: P. aerug. 2775 VIM-2 [1] | MIC (μg/mL) of Exemplary Compounds in presence of fixed β-lactams: K. p. A-1797 KPC-2 VIM-4 [2] | MIC (μg/mL) of Exemplary Compounds in presence of fixed β-lactams: E. cl. 144200 p99 AmpC [3] | IC50 (OXA-48) | MIC (μg/mL) of Exemplary Compounds in presence of fixed β-lactams: E. coli ESBL4 CTX-M-15 [4] | IC50 (KPC-2) | IC50 (AmpC) | IC50 (VIM-2) | MIC (μg/mL) of Exemplary Compounds in presence of fixed β-lactams: K. p. 11978 OXA-48 [5] | IC50 (SHV-5) | MIC (μg/mL) of Exemplary Compounds in presence of fixed β-lactams: K. p. 156319 KPC-3 [6] | IC50 (KPC-2; [7]) | IC50 (VIM-2; [8])
1 | NCCc1cnnn1CC(=O)N[C@H]1Cc2cccc(C(=O)O)c2OB1O [Example 121, (R)-3-(2-(5-(2-aminoethyl)-1H-1,2,3-triazol-1-yl)acetamido)-2-hydroxy-3,4-dihydro-2H-benzo[e][1,2]oxaborinine-8-carboxylic acid] | C (C represents an MIC of <1 μg/mL) | B (B represents an MIC between 1 and 16 μg/mL inclusive) | C (C represents an MIC of <1 μg/mL) | < 100 nM | C (C represents an MIC of <1 μg/mL) | < 100 nM | < 100 nM | 100 to 1000 nM | B (B represents an MIC between 1 and 16 μg/mL inclusive) | < 100 nM | C (C represents an MIC of <1 μg/mL) |  | 
2 | NCc1ncn(CC(=O)N[C@H]2Cc3cccc(C(=O)O)c3OB2O)n1 [Example 125] | C (C represents an MIC of <1 μg/mL) | C (C represents an MIC of <1 μg/mL) | C (C represents an MIC of <1 μg/mL) | 1000 to 10000 nM | C (C represents an MIC of <1 μg/mL) |  | < 100 nM |  | B (B represents an MIC between 1 and 16 μg/mL inclusive) | 100 to 1000 nM | C (C represents an MIC of <1 μg/mL) | < 100 nM | < 100 nM
3 | N[C@@H]1CCN(C(=O)c2cn(CC(=O)N[C@H]3Cc4cccc(C(=O)O)c4OB3O)nn2)C1 [Example 85, (R)-3-(2-(4-((R)-3-aminopyrrolidine-1-carbonyl)-1H-1,2,3-triazol-1-yl)acetamido)-2-hydroxy-3,4-dihydro-2H-benzo[e][1,2]oxaborinine-8-carboxylic acid] | C (C represents an MIC of <1 μg/mL) | B (B represents an MIC between 1 and 16 μg/mL inclusive) | C (C represents an MIC of <1 μg/mL) | 100 to 1000 nM | C (C represents an MIC of <1 μg/mL) |  | < 100 nM |  | B (B represents an MIC between 1 and 16 μg/mL inclusive) | 100 to 1000 nM | C (C represents an MIC of <1 μg/mL) | 100 to 1000 nM | 100 to 1000 nM
4 | CC(C)(C(=O)N[C@H]1Cc2cccc(C(=O)O)c2OB1O)n1cc(CNCCN)nn1 [Example 60, (R)-3-(2-(4-(((2-aminoethyl)amino)methyl)-1H-1,2,3-triazol-1-yl)-2-methylpropanamido)-2-hydroxy-3,4-dihydro-2H-benzo[e][1,2]oxaborinine-8-carboxylic acid] | C (C represents an MIC of <1 μg/mL) | C (C represents an MIC of <1 μg/mL) | C (C represents an MIC of <1 μg/mL) | < 100 nM | B (B represents an MIC between 1 and 16 μg/mL inclusive) |  | < 100 nM |  | B (B represents an MIC between 1 and 16 μg/mL inclusive) | < 100 nM | B (B represents an MIC between 1 and 16 μg/mL inclusive) | 100 to 1000 nM | < 100 nM
5 | NCCn1cc(Cn2nnc(CC(=O)N[C@H]3Cc4cccc(C(=O)O)c4OB3O)n2)nn1 [Example 124, (R)-3-(2-(2-((1-(2-aminoethyl)-1H-1,2,3-triazol-4-yl)methyl)-2H-tetrazol-5-yl)acetamido)-2-hydroxy-3,4-dihydro-2H-benzo[e][1,2]oxaborinine-8-carboxylic acid] | A (A represents an MIC>16 μg/mL) | B (B represents an MIC between 1 and 16 μg/mL inclusive) | C (C represents an MIC of <1 μg/mL) | 100 to 1000 nM | C (C represents an MIC of <1 μg/mL) |  | < 100 nM |  | B (B represents an MIC between 1 and 16 μg/mL inclusive) | < 100 nM | B (B represents an MIC between 1 and 16 μg/mL inclusive) | < 100 nM | 1000 to 10000 nM
6 | CC(C)(C(=O)N[C@H]1Cc2cccc(C(=O)O)c2OB1O)n1cc(CN)nn1 [Example 33, (R)-3-(2-(4-(aminomethyl)-1H-1,2,3-triazol-1-yl)-2-methylpropanamido)-2-hydroxy-3,4-dihydro-2H-benzo[e][1,2]oxaborinine-8-carboxylic acid] | C (C represents an MIC of <1 μg/mL) | C (C represents an MIC of <1 μg/mL) | C (C represents an MIC of <1 μg/mL) | < 100 nM | C (C represents an MIC of <1 μg/mL) |  | < 100 nM |  | B (B represents an MIC between 1 and 16 μg/mL inclusive) | < 100 nM | B (B represents an MIC between 1 and 16 μg/mL inclusive) | < 100 nM | < 100 nM

From patent US11046716B2, “Beta-lactamase inhibitors” (priority 2015, dated 2021)
